Measured values: patent US20140349945A1, “PEG-AMINO ACID-OLIGOPEPTIDE-IRINOTECAN DRUG CONJUGATES AND THE PHARMACEUTICAL COMPOSITIONS” (JENKEM TECHNOLOGY CO., LTD. (BEIJING), priority 2011, published 2014)
Marks after values point to notes of the source that are not given here.

Columns and labels:
[1] = system: human colon cancer cells HCT-116; assay: Inhibitory effect on transplanted tumors of human colon cancer cells HCT-116 in nude mice; settings: for Weight At the beginning / Weight At lats: HCT-116 tumor-bearing nude mice; for Weight At the beginning: baseline; for Weight At lats: end of experiment
From the text: BALB/cA nude mice (male, 4-6 weeks old, weighed 19±2 g) were provided by the Shanghai Institute of Materia Medica, Chinese Academy of Sciences. […] Animal numbers of each group: 12 mice in negative control group and 6 mice in treatment group.
5×10^6 cells were subcutaneously inoculated in the right armpit of each nude mouse. The transplanted tumors were transferred in nude mice for two generations before utilization.
(§1) Vigorous tumor tissues were cut into pieces of about 1.5 mm3 and then subcutaneously inoculated to the right armpit nude mice under sterile conditions. The diameters of the subcutaneous transplanted tumors were measured using a vernier caliper. The animals were randomly grouped when the tumors grew to 100-200 mm3.
(§2) After the administration, the animals were observed consecutively for one week. During the whole experiment, diameters of the transplanted tumors were measured and the animals were weighed two times a week. The tumor volume (TV) was calculated as follows: TV=½×a×b^2, wherein, a and b represented length and width respectively. According to the results of measurements, the relative tumor volumes (RTV) were calculated as follows: RTV=Vt/V0. Wherein, V0 were the volumes measured at administration after caging (i.e. d0), Vt were the tumor volumes of every measurements.

[2] = system: human colon cancer cells SW-620; assay: Inhibitory effect on transplanted tumor of human colon cancer cells SW-620 in nude mice; settings: for RTV mean ± SD) / TV (mean ± SD) d 28 / number of animals with tumor regression: SW-620, d 28; for number of animals with tumor regression: 6 mice per group; for Weight At the beginning / Weight At last: SW-620 tumor-bearing nude mice; for Weight At the beginning: baseline; for Weight At last: end of experiment
From the text: (§3) BALB/cA nude mice (male, 5-6 weeks old, weighed 18±2 g) were provided by the Shanghai Institute of Materia Medica, Chinese Academy of Sciences. […] Animal numbers of each group: 12 mice in negative control group and 6 mice in treatment group.
Human […] tumor cell strains SW-620 were purchased from ATCC. 5×10^6 cells were subcutaneously inoculated in the right armpit of each nude mouse. The transplanted tumors were transferred in nude mice for two generations before utilization.
as §2, with “Vigorous tumor tissues were cut into pieces of about 1.5 mm3 and then subcutaneously inoculated to the right armpit nude mice under sterile conditions. The diameters of the subcutaneous transplanted tumors were measured using a vernier caliper. The animals were randomly grouped when the tumors grew to 100-200 mm3. […] After” for “After”

[3] = system: human colon cancer cells HT-29; assay: Inhibitory effect on transplanted tumors of human colon cancer cells HT-29 in nude mice; settings: for Weight At the beginning / Weight At lats: HT-29 tumor-bearing nude mice; for Weight At the beginning: baseline; for Weight At lats: end of experiment
From the text: as §3
Human colon tumor cell strains HT-29 were purchased from ATCC. 5×10^6 cells were subcutaneously inoculated in the right armpit of each nude mouse. The transplanted tumors were transferred in nude mice for two generations before utilization.
as §1, with “mm^3” for “mm3”, “mm^3.” for “mm3.”
as §2

[4] = system: human ovarian cancer cells SKOV-3; assay: Inhibitory effect on transplanted tumor of human ovarian cancer cells SKOV-3 in nude mice; settings: for TV (mean ± SD) d 28 / number of animals with tumor regression: d 28; for number of animals with tumor regression: 6 mice per group; for Weight At the beginning / Weight At lats: SKOV-3 tumor-bearing nude mice; for Weight At the beginning: baseline; for Weight At lats: end of experiment
From the text: as §3
Human […] tumor cell strains SKOV-3 were purchased from ATCC. 5×10^6 cells were subcutaneously inoculated in the right armpit of each nude mouse. The transplanted tumors were transferred in nude mice for two generations before utilization.
as §1, §2

[5] = system: human lung cancer cells A549; assay: Inhibitory effect on transplanted tumors of human lung cancer cells A549 in nude mice; settings: for Weight At the beginning: A549 tumor-bearing nude mice, baseline
From the text: as §3
Human lung tumor cell strains A549 were purchased from ATCC. 5×10^6 cells were subcutaneously inoculated in the right armpit of each nude mouse. The transplanted tumors were transferred in nude mice for two generations before utilization.
as §1, §2

Weight At the beginning ([1]; 15 mg/kg, iv q3w × 3w): 19.1 g
Weight At lats ([1]; 15 mg/kg, iv q3w × 3w): 16.6 g
Weight At the beginning ([1]; 45 mg/kg, iv qw × 3w): 19.2 g
Weight At lats ([1]; 45 mg/kg, iv qw × 3w): 15.1 g
Weight At the beginning ([2]; 15 mg/kg, iv q3w × 3w): 19.7 g
Weight At last ([2]; 15 mg/kg, iv q3w × 3w): 24.2 g
Weight At the beginning ([2]; 45 mg/kg, iv qw × 3w): 18.8 g
Weight At last ([2]; 45 mg/kg, iv qw × 3w): 21.8 g
Weight At the beginning ([3]; 15 mg/kg, iv q3w × 3w): 18.2 g
Weight At lats ([3]; 15 mg/kg, iv q3w × 3w): 16.0 g
Weight At the beginning ([3]; 45 mg/kg, iv qw × 3w): 18.6 g
Weight At lats ([3]; 45 mg/kg, iv qw × 3w): 16.2 g
Weight At the beginning ([4]; 15 mg/kg, iv q3w × 3w): 18.9 g
Weight At lats ([4]; 15 mg/kg, iv q3w × 3w): 18.0 g
Weight At the beginning ([4]; 45 mg/kg, iv qw × 3w): 19.7 g
Weight At lats ([4]; 45 mg/kg, iv qw × 3w): 18.4 g
Weight At the beginning ([5]; 15 mg/kg, iv q3w × 3w): 18.1 g
Weight At the beginning ([5]; 45 mg/kg, iv qw × 3w): 18.4 g
Compound: CCc1c2c(nc3ccc(OC(=O)N4CCC(N5CCCCC5)CC4)cc13)-c1cc3c(c(=O)n1C2)COC(=O)[C@]3(O)CC [CPT-11, Irinotecan]
TV (mean ± SD) d 28 ([1]; 15 mg/kg, iv q3w × 3w, HCT-116): 322 ± 37 mm^3
body weight change during the whole experiment (in words) ([1]; 45 mg/kg group, compared with solvent control group, HCT-116): slightly higher weight loss
TV (mean ± SD) d 28 ([1]; 45 mg/kg, iv qw × 3w, HCT-116): 512 ± 99 mm^3
RTV mean ± SD) ([2]; 15 mg/kg, iv q3w × 3w): 0.02 ± 0.02**^,
TV (mean ± SD) d 28 ([2]; 15 mg/kg, iv q3w × 3w): 2.09 ± 1.51 mm^3
number of animals with tumor regression ([2]; 15 mg/kg, iv q3w × 3w): 0
RTV mean ± SD) ([2]; 45 mg/kg, iv qw × 3w): 6.60 ± 1.56
TV (mean ± SD) d 28 ([2]; 45 mg/kg, iv qw × 3w): 877 ± 324 mm^3
number of animals with tumor regression ([2]; 45 mg/kg, iv qw × 3w): 0
body weight change during the whole experiment (in words) ([3]; two groups treated with different doses (15 and 45 mg/kg), HT-29): underwent weight loss
TV (mean ± SD) d 28 ([4]; 15 mg/kg, iv q3w × 3w, SKOV-3): 924 ± 443 mm^3
number of animals with tumor regression ([4]; 15 mg/kg, iv q3w × 3w, SKOV-3): 0
TV (mean ± SD) d 28 ([4]; 45 mg/kg, iv qw × 3w, SKOV-3): 1753 ± 878 mm^3
number of animals with tumor regression ([4]; 45 mg/kg, iv qw × 3w, SKOV-3): 0
body weight change during the whole experiment (in words) ([4]; CPT-11 both dose groups, CPT-1 45 mg/kg, SKOV-3): slight weight loss
TV (mean ± SD) d 28 ([5]; 15 mg/kg, iv q3w × 3w, A549, d 28): 831 ± 305 mm^3
RTV mean ± SD) ([5]; 45 mg/kg, iv qw × 3w, A549, d 28): 9.87 ± 4.87 ^
